The text below walks through data of patent US6642222B2, “Pyrano, piperidino, and thiopyrano compounds and methods of use” (Abbott Laboratories, priority 1998, dated 2003).

Structures can show the parent of a compound that is named as a salt.

One assay has as its system Landrace Pig Bladder. Put plainly: Functional potassium channel opening activity in isolated bladder strips (field-stimulated twitch). To be noted: for Index: ED50 for P1075 divided by ED50 for the test agonist, averaged over tissues; for Emax / EC50: Sus scrofa; for Emax: maximal efficacy relative to P1075, field stimulated bladder strips; for EC50: negative logarithm of ED50, read-out: pD2 (converted). The method, then: Compounds were evaluated for functional potassium channel opening activity using tissue strips obtained from Landrace pig bladders. Landrace pig bladders were obtained from female Landrace pigs of 9-30 kg. Landrace pigs were euthanized with an intraperitoneal injection of pentobarbital solution, Somlethal®, J. A. Webster Inc. Sterling Mass. The entire bladder was removed and immediately placed into Krebs Ringer bicarbonate solution (composition, mM: NaCl, 120; […] Dextrose, 4.7; […] Propranolol (0.004 mM) was included in all of the assays to block β-adrenoceptors. The trigonal and dome portions were […], Strips 3-5 […] (mm) wide and 20 mm long were prepared from the remaining tissue cut in a circular fashion. The mucosal layer was removed. One end was fixed to a stationary glass rod and the other to a Grass FT03 transducer at a basal preload of 1.0 g. Two parallel platinum electrodes were included in the stationary glass trod to provide field stimulation of 0.05 Hz, 0.5 milli-seconds at 20 volts. […] Tissues were allowed to equilibrate for at least 60 minutes and primed with 80 mM KCl. A control concentration response curve (cumulative) was generated for each tissue using the potassium channel opener […] as the control agonist. […] After a 60 minute rinsing period, a concentration response curve (cumulative) was generated for the test agonist in the same fashion as that used for the control agonist […]. The maximal efficacy of each compounds (expressed as % relative to […]) is reported. The amount of agent necessary to cause 50% of the agent's maximal response (ED50) was calculated using “ALLFIT” (DeLean et al., Am. J. […] Agonist potencies were also expressed as an index relative to […]. The index was calculated by dividing the ED50 for […] by the ED50 for the test agonist in a given tissue. Each tissue was used for only one test agonist, and the indices obtained from each tissue were averaged to provide an average index of potency.

In assay [1] the test system is Guinea-Pig Bladder (GPB) Cells. Put plainly: Membrane Hyperpolarization (MHP) assay, DiBAC(4)3 / FLIPR. The settings on record: for EC50: membrane hyperpolarization, GPB cells; for Emax: read-out: Maximal Response (% P1075), maximal steady-state hyperpolarization, normalized to 10 μM P1075 (100%); for Maximal Response (% P1075): maximal steady-state hyperpolarization, normalized to 10 μM P1075 (100%).
Experimental: Compounds were evaluated for potassium channel opening activity using primary cultured guinea-pig urinary bladder (GPB) cells.
For the preparation of urinary bladder smooth muscle cells, urinary bladders were removed from male guinea-pigs (Hartley, Charles River, Wilmington, Mass.) weighing 300-400 grams (g) and placed in ice-cold Ca^2+-free Krebs solution (Composition, millimolar (mM): KCl, 2.7; KH2PO4, 1.5; NaCl, 75; Na2HPO4, 9.6; Na2HPO4.7H2O, 8; MgSO4, 2; glucose, 5; HEPES, 10; pH 7.4). Cells were isolated by enzymatic dissociation (Klockner, U. and Isenberg, G., Pflugers Arch. (1985), 405, 329-339). The bladder was cut into small sections and incubated in 5 milliliters (mL) of the Kreb's solution containing 1 milligram per milliliter (mg/mL) of collagenase (Sigma, St. Louis, Mo.) and 0.2 mg/mL of pronase (Calbiochem, La Jolla, Calif.) with continuous stirring in a cell incubator for 30 minutes. The mixture was then centrifuged at 1300× g for 5 minutes, and the pellet resuspended in Dulbecco's phosphate buffered saline (PBS) (GIBCO, Gaithersburg, Md.) and recentrifuged to remove residual enzyme. The cell pellet was resuspended in 5 mL growth media (composition: Dulbecco's modified Eagle's medium supplemented with 10% fetal bovine serum, 100 units/mL penicillin, 100 units/mL streptomycin and 0.25 mg/mL amphotericin B) and further dissociated by pipetting the suspension through a flame-polished Pasteur pipette and passing it through a polypropylene mesh membrane (Spectrum, Houston, Tex.). The cell density was adjusted to 100,000 cells/mL by resuspension in growth media. Cells were plated in clear-bottomed black 96-well plates (Packard) for membrane potential studies at a density of 20,000 cells/well and maintained in a cell incubator with 90% air: 10% CO2 until confluent. Cells were confirmed to be of smooth muscle type by cytoskeletal staining using a monoclonal mouse anti human-α-smooth muscle actin (Biomeda, Foster City, Calif.).
Functional activity at potassium channels was measured by evaluating changes in membrane potential using the bis-oxonol dye DiBAC(4)3 (Molecular Probes) in a 96-well cell-based kinetic assay system using a Fluorescent Imaging Plate Reader (FLIPR) (K. S. Schroeder et al., J. Biomed. Screen., v. 1 pp. 75-81 (1996)). DiBAC(4)3 is an anionic potentiometric probe which partitions between cells and extracellular solution in a membrane potential-dependent manner. With increasing membrane potential (for example, K^+ depolarization), the probe further partitions into the cell; this is measured as an increase in fluorescence due to dye interaction with intracellular lipids and proteins. Conversely, decreasing membrane potential (hyperpolarization by potassium channel openers) evokes a decrease in fluorescence.
Confluent guinea-pig urinary bladder cells cultured in black clear-bottomed 96-well plates were rinsed twice with 200 mL assay buffer (composition, mM: HEPES, 20; NaCl, 120; KCl, 2; CaCl2, 2; MgCl2, 1; glucose, 5; pH 7.4 at 25° C.) containing 5 μM DiBAC(4)3 and incubated with 180 mL of the buffer in a cell incubator for 30 minutes at 37° C. to ensure dye distribution across the membrane. After recording the baseline fluorescence for 5 minutes, the reference or test compounds, prepared at 10 times the concentration in the assay buffer, were added directly to the wells. Changes in fluorescence were monitored for an additional 25 minutes.
Routinely, five concentrations of P1075 or test compounds (log or half-log dilutions) were evaluated and the maximal steady-state hyperpolarization values (expressed as % relative to P1075) plotted as a function of concentration. The EC50 (concentration that elicites 50% of the maximal response for the test sample) values were calculated by non-linear regression analysis using a four parameter sigmoidal equation. The maximal micromolar EC50 response of each compound (expressed as % relative to P1075) is reported.

Turning to `O=C1COCC2=C1[C@@H](c1ccc(F)c(Br)c1)C1=C(COC1=O)N2` (single isomer, unassigned) [Example 42], in the assay on Landrace Pig Bladder, the Index came out at 0.17, the Emax was 95% and the EC50 is 631 nM. Besides, in assay [1] (Cavia porcellus), the EC50 was 26 nM and the Emax is 102%.
Take `O=C1COCC2=C1[C@H](c1ccc(F)c(Br)c1)C1=C(COC1=O)N2` (single isomer, unassigned) [Example 43]: in the assay on Landrace Pig Bladder, the Index came out at 0.68, the Emax worked out at 88% and the EC50 was 200 nM. In addition, in assay [1] (Cavia porcellus), the EC50 was found to be 11 nM and the Emax worked out at 98%.
As to `O=C1COCC2=C1[C@H](c1ccc(F)c(I)c1)C1=C(COC1=O)N2` (single isomer, unassigned) [Example 78], in the assay with Landrace Pig Bladder, the Index came to 0.79, the Emax was determined as 96% and the EC50 is 79.4 nM. Besides, in assay [1] (Cavia porcellus), the EC50 was 4.9 nM and the Emax worked out at 97%.
For the compound `O=C1COCC2=C1[C@@H](c1ccc(F)c(I)c1)C1=C(COC1=O)N2` (single isomer, unassigned) [Example 79], in the assay with Landrace Pig Bladder, the Index is given as 0.40, the Emax stood at 95% and the EC50 was 158 nM. Further, in assay [1] (Cavia porcellus), the EC50 was determined as 14 nM and the Emax is 90%.
For the compound `Cc1ccc([C@H]2C3=C(COCC3=O)NC3=C2C(=O)OC3)cc1Br` (single isomer, unassigned) [Example 81], in the assay with Landrace Pig Bladder, the Index was found to be 0.23, the Emax came to 93% and the EC50 is 398 nM.
Consider `Cc1ccc(C2C3=C(COCC3=O)NC3=C2C(=O)OC3)cc1I` (single isomer, unassigned) [Example 82, 9-(3-iodo-4-methylphenyl)-5,9-dihydro-3H-furo [3,4-b]pyrano[4,3-e]pyridine-1,8(4H,7H)-dione], for which, in the assay on Landrace Pig Bladder, the Index is on record as 1.4, the Emax is 98% and the EC50 is 31.6 nM.
In the case of `N#Cc1cccc(C2C3=C(COCC3=O)NC3=C2S(=O)(=O)CC3)c1` (single isomer, unassigned; (-)) [Example 16, (−) 9-(3-cyanophenyl)-2,3,5,9-tetrahydro-4H-pyrano [3,4-b]thieno[2,3-e]pyridin-8(7H)-one 1,1-dioxide], in assay [1], the “Maximal Response (% P1075)” value is 57 % P1075 and the EC50 stood at 8800 nM.
For `O=C1CNCC2=C1C(c1ccc(F)c(Br)c1)C1=C(CNCC1=O)N2` [Example 4, 5-(3-bromo-4-fluorophenyl)-2,3,5,8,9,10-hexahydropyrido [3,4-b][1,7]naphthyridine-4,6(1H,7H)-dione Dihydrochloride], in assay [1] (Cavia porcellus), the Emax amounted to 21%.
On to `N#Cc1cccc(C2C3=C(COCC3=O)NC3=C2S(=O)(=O)CC3)c1` (stereo not drawn) [Example 14, 9-(3-cyanophenyl)-2,3,5,9-tetrahydro-4H-pyrano[3,4-b]thieno[2,3-e]pyridin-8(7H)-one 1,1-dioxide], for which, in assay [1], the “Maximal Response (% P1075)” value worked out at 99 % P1075 and the EC50 was determined as 400 nM.
`O=C1COCC2=C1C(c1ccc(Cl)c([N+](=O)[O-])c1)C1=C(CCS1(=O)=O)N2` (stereo not drawn) [Example 17, 9-(4-chloro-3-nitrophenyl)-2,3,5,9-tetrahydro-4H-pyrano[3,4-b]thieno[2,3-e]pyridin-8(7H)-one 1,1-dioxide]: the Emax in assay [1] (Cavia porcellus) came to 93%. The EC50 in assay [1] worked out at 4.2 nM.
On to `O=C1COCC2=C1C(c1ccc(F)c(Br)c1)C1=C(CCCS1(=O)=O)N2` (stereo not drawn) [Example 21, 10-(3-bromo-4-fluorophenyl)-3,4,6,10-tetrahadro-2H,5H-pyrano[3,4-b]thioyrano[2,3-e]pyridin-9(8H)-one 1,1-dioxide], for which, in assay [1], the “Maximal Response (% P1075)” value came to 79 % P1075 and the EC50 was 66 nM.
With `O=C1CCC2=C1C(c1ccc(F)c(Br)c1)C1=C(COCC1=O)N2` (stereo not drawn) [Example 23, 5-(3-bromo-4-fluorophenyl)-5,7,8,9-tetrahydrocyclopenta [b]pyrano[4,3-e]pyridine-4,6(1H,3H)-dione], in assay [1] (Cavia porcellus), the EC50 turned out to be 40 nM and the Emax worked out at 82%.
With `O=C1COCC2=C1C(c1ccc(F)c(Br)c1)C1=C(COC1=O)N2` (stereo not drawn) [Example 25, 9-(3-bromo-4-fluorophenyl)-5,9-dihydro-3H-furo [3,4-b]pyrano[4,3-e]pyridine-1,8(4H,7H)-dione], in assay [1] (Cavia porcellus), the EC50 was determined as 9.8 nM and the Emax came to 106%.
As to `CN1CC2=C(C1=O)C(c1ccc(F)c(Br)c1)C1=C(COCC1=O)N2` (stereo not drawn) [Example 26, 9-(3-bromo-4-fluorophenyl)-2-methyl-2,3,5,9-tetrahydropyrano[3,4-b]pyrrolo[3,4-e]pyridine-1,8(4H,7H)-dione], in assay [1] (Cavia porcellus), the EC50 was determined as 13 nM and the Emax came to 90%.
Consider `O=C1COCC2=C1C(c1ccc(F)c(Cl)c1)C1=C(CCNC1=O)N2` (stereo not drawn) [Example 44, 10-(3-chloro-4-fluorophenyl)-3,4,6,10-tetrahydro-2H-pyrano [3,4-b][1,6]naphthyridine-1,9(5H,8H)-dione], for which the Emax in assay [1] (Cavia porcellus) was 96%.
On to `O=C1COCC2=C1C(c1ccc(Cl)c(Cl)c1)C1=C(CCNC1=O)N2` (stereo not drawn) [Example 45, 10-(3,4-dichlorophenyl)-3,4,6,10-tetrahydro-2H-pyrano [3,4-b][1,6]naphthyridine-1,9(5H,8H)-dione], for which, in assay [1] (Cavia porcellus), the EC50 was 200 nM and the Emax is 85%.
As to `O=C1COCC2=C1C(c1ccc(Cl)c(C(F)(F)F)c1)C1=C(CCNC1=O)N2` (stereo not drawn) [Example 46, 10-[4-chloro-3-(trifluoromethyl)phenyl]-3,4,6,10-tetrahydro-2H-pyrano[3,4-b][1,6]naphthyridine-1,9(5H,8H)-dione], in assay [1] (Cavia porcellus), the EC50 turned out to be 340 nM and the Emax is 83%.
Take `O=C1COCC2=C1C(c1ccc(Cl)c([N+](=O)[O-])c1)C1=C(CCNC1=O)N2` (stereo not drawn) [Example 47, 10-(4-chloro-3-nitrophenyl)-3,4,6,10-tetrahydro-2H-pyrano[3,4-b][1,6]naphthyridine-1,9(5H,8H)-dione]: in assay [1] (Cavia porcellus), the EC50 is 490 nM and the Emax turned out to be 91%.
For `O=C1COCC2=C1C(c1ccc(Br)c(Br)c1)C1=C(CCNC1=O)N2` (stereo not drawn) [Example 48, 10-(3,4-dibromophenyl)-3,4,6,10-tetrahydro-2H-pyrano[3,4-b][1,6]naphthyridine-1,9(5H,8H)-dione], in that order: 84 nM and 91%.
On the same counts, the results for `O=C1COCC2=C1C(c1csc([N+](=O)[O-])c1)C1=C(CCNC1=O)N2` (stereo not drawn) [Example 49, 10-(5-nitro-3-thienyl)-3,4,6,10-tetrahydro-2H-pyrano [3,4-b][1,6]naphthyridine-1,9(5H,8H)-dione] are 2300 nM and 85%.
`O=C1CCC2=C1C(c1ccc(F)c(Br)c1)C1=C(CSCC1=O)N2` (stereo not drawn) [Example 51, 5-(3-bromo-4-fluorophenol)-5,7,8,9-tetrahydrocyclopenta [b]thiopyrano[4,3-e]pyridine-4,6(1H,3H)-dione]: in assay [1], the “Maximal Response (% P1075)” value turned out to be 88 % P1075 and the EC50 stood at 120 nM.
As for `O=C1COCC2=C1C(c1ccc(Cl)c(C(F)(F)F)c1)C1=C(COCC1=O)N2` [Example 56, 5-[4-chloro-3-(trifluoromethyl)phenyl]-5,10-dihydro-1H, 3H-dipyrano[3,4-b:4,3-e]pyridine-4,6(7H,9H)-dione], in assay [1], the “Maximal Response (% P1075)” value came out at 96 % P1075 and the EC50 was found to be 15 nM.
For `O=C1COCC2=C1C(c1ccc(Br)c(Cl)c1)C1=C(COCC1=O)N2` [Example 60, 5-(4-bromo-3-chlorophenyl)-5,10-dihydro-1H,3H-dipyrano[3,4-b:4,3-e]pyridine-4,6(7H,9H)-dione], in that order: 88 % P1075 and 23 nM.
For `O=C1COCC2=C1C(c1ccc(Cl)c(Br)c1)C1=C(COCC1=O)N2` [Example 61, 5-(3-bromo-4-chlorophenyl)-5,10-dihydro-1H,3H-dipyrano[3,4-b:4,3-e]pyridine-4,6(7H,9H)-dione], in assay [1], the “Maximal Response (% P1075)” value is recorded as 97 % P1075 and the EC50 came to 6.3 nM.
Regarding `O=C1COCC2=C1C(c1ccc(C(F)(F)F)c(I)c1)C1=C(COCC1=O)N2` [Example 62, 5-[3-iodo-4-(trifluoromethyl)phenyl]-5,10-dihydro-1H,3H-dipyrano[3,4-b:4,3-e]pyridine-4,6(7H,9H)-dione], in assay [1], the “Maximal Response (% P1075)” value amounted to 77 % P1075 and the EC50 is 58 nM.
With `CCC(C)(C)N=C(NC#N)Nc1cccnc1` [Example P1075, reference compound], the stimulated twitch result in the assay with Landrace Pig Bladder (control agonist, 10^−9 to 10^−5 M, dose dependent) is “completely eliminated the stimulated twitch”.
